pIC50: −log10 of the molar value. Counter-ions that a name gives are not always drawn. Like-named read-outs stand apart in the source and are kept apart here.
What was measured:
P-glycoprotein = settings: cited from earlier work
[1] = urine and fecal excretion recovery, cycle 0; format: in vivo; settings: human, oral
Procedure: Blood samples (4 ml) for pharmacokinetic analyses were collected in tubes containing K2EDTA anticoagulant. Blood samples were centrifuged at 3,000 rpm for 10 min at 4°C and stored at –80°C until liquid chromatography-mass spectrophotometry (LC-MS/MS) analysis. Urine and fecal samples were collected only when patients were given the150-mg and 220-mg dose levels at sampling time intervals of 0–4, 4–8, 8–12, 12–24, 24–48, 48–72, 72–96 and 96–120 h in cycle 0.
Linear mixed effects model was used to explore the dose exposure relationships. Dose proportionality was concluded if the 95% confidence interval (CI) of the linear regression slope was completely contained within the decision interval (1 + ln (0.8)/ln (8)∼1 + ln (1.25)/ln (8)). For urine and fecal data, the accumulative excretion rates of larotinib and M5 were calculated.
Bioanalysis was performed at Frontage Company (Shanghai, China). Validated high-performance LC-MS/MS method was used to quantify the concentrations of larotinib and M5 in plasma, urine and feces samples. Protein precipitation was employed for plasma, urine and feces processing. Plasma larotinib and M5 concentrations were determined using appropriate calibration curves obtained from standards in the range of 0.5–1,000 ng/ml. The interassay precision of the analysis method were 4.2–5.4% for larotinib and 3.9–4.3% for M5. The interassay accuracy of the analysis method were 100.4–103.4% for larotinib and 102.2–102.9% for M5, respectively.

beagle dogs [2] = settings: dog, in vivo
Procedure: (§1) Animal toxicology studies of larotinib mesylate were conducted in both Sprague–Dawley rats and beagle dogs. […] The maximal tolerable doses (MTDs) were 20 and 25 mg/kg in Sprague–Dawley rats and beagle dogs, respectively.
(§2) According to the guidance for clinical trials of antitumor agents published by the Center for Drug Evaluation and Research in China, for cytotoxic antitumor agents, the initial dose in a phase I study can be calculated as 1/10 of the MTD in rodents or 1/6 of the MTD in non-rodent animals ([CFDA, 2012]). For non-cytotoxic antitumor agents, because of their relatively lower toxicity, the initial dose can be set higher. According to the reported preclinical results for larotinib mesylate, the MTD in Sprague–Dawley rats translated to a human equivalent dose of 192 mg/d according to body surface area (calculated by 60 kg body weight), for which 1/10 is 19.2 mg/d ([FDA, 2005]). […] Taking the above results for the toxicology, preclinical pharmacology and pharmacodynamics, and drug specifications (10, 50 and 100 mg) of larotinib mesylate into account, we calculated a recommended starting dose of 50 mg larotinib mesylate for a phase I, first-in-human clinical study, lower than human equivalent 1/6 MTD translated from beagle dogs and near the human equivalent effective dose translated from tumor-bearing mice. […]

Sprague–Dawley rats = settings: rat, in vivo
Procedure: as §1, §2

[3] = target: B-lymphoid tyrosine kinase (BLK); design: method as in data not published; settings: ref data not published; cited from earlier work
beagle dogs [4] = tested on: beagle dogs; design: method as in data not published; settings: ref data not published, cited from earlier work
[5] = tested on: EGFR with the L861Q mutation; design: method as in data not published; settings: ref data not published; cited from earlier work
[6] = target: interleukin-1 receptor-associated kinase 1 (IRAK1); design: method as in data not published; settings: ref data not published; cited from earlier work
CYP3A4 = tested on: CYP3A4; design: method as in data not published; settings: in vitro studies; ref data not published; cited from earlier work
EGFR (T790M) = tested on: EGFR (T790M); design: method as in data not published; settings: ref data not published; cited from earlier work

COc1cc2ncnc(Nc3ccc(F)c(Cl)c3)c2cc1OCCCN1C[C@@H]2OCCO[C@@H]2C1 [larotinib mesylate]
P-glycoprotein substrate (P-glycoprotein): substrate of P-glycoprotein | dose excreted ([1]; feces, 150-mg group, read-out: 0–120 h excretion recovery percentage in feces): 6.01% | dose excreted ([1]; feces, 220-mg group, read-out: 0–120 h excretion recovery percentage in feces): 7.89% | dose excreted ([1]; 150-mg group, urine plus feces, read-out: 0–120 h excretion recovery percentage, total): 7.41% | dose excreted ([1]; 220-mg group, urine plus feces, read-out: 0–120 h excretion recovery percentage, total): 9.25% | dose excreted ([1]; urine, 150-mg group, read-out: 0–120 h excretion recovery percentage in urine): 1.4% | dose excreted ([1]; urine, 220-mg group, read-out: 0–120 h excretion recovery percentage in urine): 1.36% | human equivalent dose of MTD (beagle dogs [2]): 810 mg/day | human equivalent dose of MTD (Sprague–Dawley rats): 192 mg/day | pIC50 [3]: 6.99 | lowest observed adverse effect level (LOAEL) (beagle dogs [4]; daily administration): 5 mg/kg | maximal tolerable dose (MTD) (beagle dogs [4]): 25 mg/kg | pIC50 [5]: 9.37 | pIC50 [6]: 6.78 | fraction metabolized by CYP3A4 (CYP3A4): around 85% | pIC50 (EGFR (T790M)): 7.34

— PMC7930822, “Phase I Trial to Evaluate the Tolerance, Pharmacokinetics and Efficacy of the Broad-Spectrum ErbB Family Inhibitor Larotinib Mesylate in Patients With Advanced Solid Tumors” (Frontiers in Pharmacology, 2021)
